This note sets out measurements from patent US9884849B2, “Fluorinated benzofuranyl-pyrimidine derivatives containing a sulfoximine group” (Bayer Pharma Aktiengesellschaft, priority 2014, dated 2018).

Test [1] deals with T1, CDK2/CycE (Homo sapiens, UniProt P24941).
T1 construct: GST; purchased ProQinase GmbH (Freiburg, Germany); host or cells: insect cells (Sf9)
The experiment in a line: CDK2/CycE high ATP kinase assay (Method 2b, TR-FRET). Type of test: biochemical. The settings on record: 2 mM ATP. How it is done: 2b. CDK2/CycE High ATP Kinase Assay:
CDK2/CycE-Inhibitory Activity of Compounds of the Present Invention at 2 mM Adenosine-Tri-Phosphate (ATP) was Quantified Employing the CDK2/CycE TR-FRET (TR-FRET=Time Resolved Fluorescence Energy Transfer) Assay as Described in the Following Paragraphs.
Recombinant fusion proteins of GST and human CDK2 and of GST and human CycE, expressed in insect cells (Sf9) and purified by Glutathion-Sepharose affinity chromatography, were purchase from ProQinase GmbH (Freiburg, Germany). As substrate for the kinase reaction biotinylated peptide biotin-Ttds-YISPLKSPYKISEG (C-terminus in amid form) was used which can be purchased e.g. form the company JERINI peptide technologies (Berlin, Germany).
For the assay 50 nl of a 100 fold concentrated solution of the test compound in DMSO was pipetted into a black low volume 384 well microtiter plate (Greiner Bio-One, Frickenhausen, Germany), 2 yl of a solution of CDK2/CycE in aqueous assay buffer [50 mM Tris/HCl pH 8.0, 10 mM MgCl2, 1.0 mM dithiothreitol, 0.1 mM sodium ortho-vanadate, 0.01% (v/v) Nonidet-P40 (Sigma)] were added and the mixture was incubated for 15 min at 22° C. to allow pre-binding of the test compounds to the enzyme before the start of the kinase reaction. […] The concentration of CDK2/CycE was adjusted depending of the activity of the enzyme lot and was chosen appropriate to have the assay in the linear range, typical concentrations were in the range of 15 ng/ml. The reaction was stopped by the addition of 5 yl of a solution of TR-FRET detection reagents (0.2 μM streptavidine-XL665 [Cisbio Bioassays, Codolet, France] and 1 nM anti-RB(pSer807/pSer811)-antibody from BD Pharmingen [#558389] and 1.2 nM LANCE EU-W1024 labeled anti-mouse IgG antibody [Perkin-Elmer, product no. AD0077, as an alternative a Terbium-cryptate-labeled anti-mouse IgG antibody from Cisbio Bioassays can be used]) in an aqueous EDTA-solution (100 mM EDTA, 0.2% (w/v) bovine serum albumin in 100 mM HEPES/NaOH pH 7.0).
The resulting mixture was incubated 1 h at 22° C. to allow the formation of complex between the phosphorylated biotinylated peptide and the detection reagents. Subsequently the amount of phosphorylated substrate was evaluated by measurement of the resonance energy transfer from the Eu-chelate to the streptavidine-XL. Therefore, the fluorescence emissions at 620 nm and 665 nm after excitation at 350 nm were measured in a TR-FRET reader, e.g. a Rubystar (BMG Labtechnologies, Offenburg, Germany) or a Viewlux (Perkin-Elmer). The ratio of the emissions at 665 nm and at […] was taken as the measure for the amount of phosphorylated substrate. The data were normalised (enzyme reaction without inhibitor=0% inhibition, all other assay components but no enzyme=100% inhibition).
In general terms: Time-resolved FRET reads energy transfer from a long-lived donor to a nearby acceptor.

Test [2] relates to HeLa cells. The experiment in a line: Proliferation assay HeLa (Method 3). The settings on record: Homo sapiens, 96 h, 4 days, crystal violet, read-out: Inhibition of HeLa cell proliferation IC50. Type of test: cell-based, human. How it is done: Cultivated tumour cells (HeLa, human cervical tumour cells, ATCC CCL-2; NCI-H460, human non-small cell lung carcinoma cells, ATCC HTB-177; A2780, human ovarian carcinoma cells, ECACC #93112519; DU 145, hormone-independent human prostate carcinoma cells, ATCC HTB-81; HeLa-MaTu-ADR, multidrug-resistant human cervical carcinoma cells, EPO-GmbH Berlin; Caco-2, human colorectal carcinoma cells, ATCC HTB-37; B16F10, mouse melanoma cells, ATCC CRL-6475) were plated at a density of 5,000 cells/well (DU145, HeLa-MaTu-ADR), 3,000 cells/well (NCI-H460, HeLa), 2,500 cells/well (A2780), 1,500 cells/well (Caco-2), or 1,000 cells/well (B16F10) in a 96-well multititer plate in 200 μL of their respective growth medium supplemented 10% fetal calf serum. After 24 hours, the cells of one plate (zero-point plate) were stained with crystal violet (see below), while the medium of the other plates was replaced by fresh culture medium (200 μl), to which the test substances were added in various concentrations (0 μM, as well as in the range of 0.001-10 μM; the final concentration of the solvent dimethyl sulfoxide was 0.5%). The cells were incubated for 4 days in the presence of test substances. Cell proliferation was determined by staining the cells with crystal violet: the cells were fixed by adding 20 μl/measuring point of an 11% glutaric aldehyde solution for 15 minutes at room temperature. After three washing cycles of the fixed cells with water, the plates were dried at room temperature. The cells were stained by adding 100 μl/measuring point of a 0.1% crystal violet solution (pH 3.0). After three washing cycles of the stained cells with water, the plates were dried at room temperature. The dye was dissolved by adding 100 μl/measuring point of a 10% acetic acid solution. The extinction was determined by photometry at a wavelength of 595 nm. The change of cell number, in percent, was calculated by normalization of the measured values to the extinction values of the zero-point plate (=0%) and the extinction of the untreated (0 μm) cells (=100%). The IC50 values (inhibitory concentration at 50% of maximal effect) were determined by means of a 4 parameter fit.

Consider `CS(=O)(Cc1cccc(Nc2ncc(F)c(-c3ccc(F)c4ccoc34)n2)c1)=NC#N` (racemic) [Example 1, (rac)-[(3-{[5-Fluoro-4-(4-fluoro-1-benzofuran-7-yl)pyrimidin-2-yl]amino}benzyl)(methyl)oxido-λ^6-sulfanylidene]cyanamide], for which the IC50 in test [1] came to 560 nM; in test [2] it was 104 nM.

For the compound `CS(=N)(=O)Cc1cc(Nc2ncc(F)c(-c3ccc(F)c4ccoc34)n2)cc(S(F)(F)(F)(F)F)c1` (racemic) [Example 18, (rac)-5-Fluoro-4-(4-fluoro-1-benzofuran-7-yl)-N-{3-[(S-methylsulfonimidoyl)methyl]-5-(pentafluoro-λ^6-sulfanyl)phenyl}pyrimidin-2-amine], the IC50 in test [1] was determined as 1540 nM; in test [2] it was 101 nM.
